Experimental data as given in patent US20020028836A1, “Potassium channel openers” (priority 2000, published 2002).
Like-named read-outs stand apart in the source and are kept apart here.

Legend:
[1] = system: primary cultured guinea-pig urinary bladder (GPB) cells; assay: Membrane hyperpolarization (MHP) assay, DiBAC(4)3 / FLIPR; format: cell-based; conditions: for EC50: concentration that elicits 50% of the maximal response for the test sample
Experimental: Compounds were evaluated for potassium channel opening activity using primary cultured guinea-pig urinary bladder (GPB) cells.
For the preparation of urinary bladder smooth muscle cells, urinary bladders were removed from male guinea-pigs (Hartley, Charles River, Wilmington, Mass.) weighing 300-400 g and placed in ice-cold Ca^2+-free Krebs solution (Composition, mM: KCl, 2.7; KH2PO4, 1.5; NaCl, 75; Na2HPO4, 9.6; Na2HPO4.7H2O, 8; MgSO4, 2; glucose, 5; HEPES, 10; pH 7.4). Cells were isolated by enzymatic dissociation as previously described with minor modifications (Klockner, U. and Isenberg, G., Pflugers Arch. (1985), 405, 329-339), hereby incorporated by reference. The bladder was cut into small sections and incubated in 5 mL of the Kreb's solution containing I mg/mL collagenase (Sigma, St. Louis, Mo.) and 0.2 mg/mL pronase (Calbiochem, La Jolla, Calif.) with continuous stirring in a cell incubator for 30 minutes. The mixture was then centrifuged at 1300×g for 5 minutes, and the pellet resuspended in Dulbecco's PBS (GIBCO, Gaithersburg, Md.) and recentrifuged to remove residual enzyme. The cell pellet was resuspended in 5 mL growth media (composition: Dulbecco's modified Eagle's medium supplemented with 10% fetal bovine serum, 100 units/mL penicillin, 100 units/mL streptomycin and […] amphotericin B) and further dissociated by pipetting the suspension through a flame-polished Pasteur pipette and passing it through a polypropylene mesh membrane (Spectrum, Houston, Tex.). The cell density was adjusted to 100,000 cells/mL by resuspension in growth media. Cells were plated in clear-bottomed black 96-well plates (Packard) for membrane potential studies at a density of 20,000 cells/well and maintained in a cell incubator with 90% air: 10% CO2 until confluent. Cells were confirmed to be of smooth muscle type by cytoskeletal staining using a monoclonal mouse anti human-α-smooth muscle actin (Biomeda, Foster City, Calif.).
Functional activity at potassium channels was measured by evaluating changes in membrane potential using the bis-oxonol dye DiBAC(4) (Molecular Probes) in a 96-well cell-based kinetic assay system, Fluorescent Imaging Plate Reader (FLIPR) (K. S. Schroeder et al., J. Biomed. Screen., v. 1 pp. 75-81 (1996)), hereby incorporated by reference. DiBAC(4)3 is an anionic potentiometric probe which partitions between cells and extracellular solution in a membrane potential-dependent manner. With increasing membrane potential (for example, K^+ depolarization), the probe further partitions into the cell; this is measured as an increase in fluorescence due to dye interaction with intracellular lipids and proteins. Conversely, decreasing membrane potential (hyperpolarization by potassium channel openers) evokes a decrease in fluorescence.
Confluent guinea-pig urinary bladder cells cultured in black clear-bottomed 96-well plates were rinsed twice with […] assay buffer (composition, mM: HEPES, 20; NaCl, 120; KCl, 2; CaCl2, 2; MgCl2, 1; glucose, 5; pH 7.4 at 25° C.) containing 5 μM DiBAC(4)3 and incubated with […] of the buffer in a cell incubator for 30 minutes at 37° C. to ensure dye distribution across the membrane. After recording the baseline fluorescence for 5 minutes, the reference or test compounds, prepared at 10 times the concentration in the assay buffer, were added directly to the wells. Changes in fluorescence were monitored for an additional 25 minutes. Hyperpolarization responses were corrected for any background noise and were normalized to the response observed with 10 μM of the reference compound P1075 (assigned as 100%), a potent opener of smooth muscle KATP channels (Quast et al., Mol. Pharmacol., v. 43 pp. 474-481 (1993)), hereby incorporated by reference.
Routinely, five concentrations of P1075 or test compounds (log or half-log dilutions) were evaluated and the maximal steady-state hyperpolarization values (expressed as % relative to P1075) plotted as a function of concentration. […]

[2] = system: tissue strips obtained from Landrace pig bladders; assay: Functional potassium channel opening activity in isolated bladder strips (field-stimulated twitch); conditions: for Index: ED50 for P1075 divided by ED50 for the test agonist in a given tissue, averaged; for EC50: amount of agent necessary to cause 50% of the agent's maximal response, read-out: ED50 (the source's name)
Experimental: Compounds were evaluated for functional potassium channel opening activity using tissue strips obtained from Landrace pig bladders.
Landrace pig bladders were obtained from female Landrace pigs of 9-30 kg. Landrace pigs were euthanized with an intraperitoneal injection of pentobarbital solution, Somlethal®, J. A. Webster Inc., Sterling, Mass. The entire bladder was removed and immediately placed into Krebs Ringer bicarbonate solution (composition, mM: NaCl, 120; NaHCO3, 20; dextrose, 11; KCl, 4.7; CaCl2, 2.5; MgSO4, 1.5; KH2PO4, 1.2; K2EDTA, 0.01, equilibrated with 5% CO2/95% O2pH 7.4 at 37° C.). Propranolol (0.004 mM) was included in all of the assays to block β-adrenoceptors. The trigonal and dome portions were discarded. Strips 3-5 mm wide and 20 mm long were prepared from the remaining tissue cut in a circular fashion. The mucosal layer was removed. One end was fixed to a stationary glass rod and the other to a Grass FT03 transducer at a basal preload of 1.0 gram. Two parallel platinum electrodes were included in the stationary glass rod to provide field stimulation of 0.05 Hz, 0.5 milli-seconds at 20 volts. This low frequency stimulation produced a stable twitch response of 100-500 centigrams. Tissues were allowed to equilibrate for at least 60 minutes and primed with 80 mM KCl. A control concentration response curve (cumulative) was generated for each tissue using the potassium channel opener P1075 as the control agonist. […] After a 60 minute rinsing period, a concentration response curve (cumulative) was generated for the test agonist in the same fashion as that used for the control agonist P1075. The maximal efficacy of each compound (expressed as % relative to P1075) is reported. The amount of agent necessary to cause 50% of the agent's maximal response (ED50) was calculated using “ALLFIT” (DeLean et al., Am. J. Physiol., 235, E97 (1980)), hereby incorporated by reference. Agonist potencies were also expressed as an index relative to P1075. The index was calculated by dividing the ED50 for P1075 by the ED50 for the test agonist in a given tissue. Each tissue was used for only one test agonist, and the indices obtained from each tissue were averaged to provide an average index of potency.

[3] = Cavia porcellus, maximal steady-state hyperpolarization, normalized to response with 10 μM P1075 (100%)
[4] = Sus scrofa, maximal efficacy relative to P1075, field stimulation 0.05 Hz, 0.5 ms, 20 volts

SMILES	EC50 [1]	Maximal Response (% P1075) ([1]; maximal steady-state hyperpolarization, normalized to response with 10 μM P1075 (100%))	Index [2]	EC50 [2]	Efficacy (% P1075) ([2]; maximal efficacy relative to P1075, field stimulation 0.05 Hz, 0.5 ms, 20 volts)	Emax [1, 3]	EC50 ([2]; Sus scrofa)	Emax [2, 4]	EC50 ([1]; Cavia porcellus)
CC1=C(CC(NC(=O)c2ccc(Cl)cc2)NC(=NC#N)Nc2cccnc2)C(C)(C)CCC1 (single isomer, unassigned; (-)) [Example 89, (−) 4-chloro-N-[1-{[(cyanoimino)(3-pyridinylamino)methyl]amino}-2-(2,6,6-trimethyl-1-cyclohexen-1-yl)ethyl]benzamide]	100 nM	88 % P1075	0.120	3400 nM	41 % P1075	–	–	–	–
C=CCC(C)(C)C(NC(=O)c1ccc(Cl)cc1)NC(=NC#N)Nc1cccnc1 (single isomer, unassigned; (-)) [Example 90, (−) 4-chloro-N-(1-{[(cyanoimino)(3-pyridinylamino)methyl]amino}-2,2-dimethyl-4-pentenyl)benzamide]	170 nM	–	0.420	–	–	55%	420 nM	44%	–
Cc1ccc(C(=O)NC(NC(=S)Nc2cccnc2)C(F)(F)F)cc1 (stereo not drawn) [Example 1, 4-methyl-N-(2,2,2-trifluoro-1-{[(3-pyridinylamino)carbothioyl]amino}ethyl)benzamide]	–	–	0.009	–	–	116%	9000 nM	100%	70 nM
Cc1ccc(C(=O)NC(NC(=S)Nc2ccc(F)cc2)C(F)(F)F)cc1 (stereo not drawn) [Example 3, 4-methyl-N-(2,2,2-trifluoro-1-{[(4-fluoroanilino)carbothioyl]amino}ethyl)benzamide]	–	–	0.012	–	–	79%	9000 nM	97%	890 nM
Cc1ccc(C(=O)NC(NC(=S)Nc2cccc([N+](=O)[O-])c2)C(F)(F)F)cc1 (stereo not drawn) [Example 4, 4-methyl-N-(2,2,2-trifluoro-1-{[(3-nitroanilino)carbothioyl]amino}ethyl)benzamide]	–	–	0.015	–	–	133%	18000 nM	89%	300 nM
Cc1ccc(C(=O)NC(NC(=S)Nc2ccccc2)C(F)(F)F)cc1 (stereo not drawn) [Example 9, N-{1-[(anilinocarbothioyl)amino]-2,2,2-trifluoroethyl}-4-methylbenzamide]	–	–	0.011	–	–	104%	17000 nM	91%	80 nM
Cc1ccc(C(=O)NC(NC(=S)Nc2ccccc2F)C(F)(F)F)cc1 (stereo not drawn) [Example 11, 4-methyl-N-(2,2,2-trifluoro-1-{[(2-fluoroanilino)carbothioyl]amino}ethyl)benzamide]	–	–	0.011	–	–	109%	19000 nM	100%	510 nM
Cc1ccc(C(=O)NC(NC(=S)Nc2cccc(F)c2)C(F)(F)F)cc1 (stereo not drawn) [Example 13, 4-methyl-N-(2,2,2-trifluoro-1-{[(3-fluoroanilino)carbothioyl]amino}ethyl)benzamide]	–	–	0.022	–	–	91%	10000 nM	95%	350 nM
Cc1ccc(C(=O)NC(NC(=S)Nc2cc(F)ccc2F)C(F)(F)F)cc1 (stereo not drawn) [Example 14, N-(1-{[(2,5-difluoroanilino)carbothioyl]amino}-2,2,2-trifluoroethyl)-4-methylbenzamide]	–	–	0.027	–	–	110%	14000 nM	96%	300 nM
Cc1ccc(C(=O)NC(NC(=S)Nc2ccc(F)cc2F)C(F)(F)F)cc1 (stereo not drawn) [Example 15, N-(1-{[(2,4-difluoroanilino)carbothioyl]amino}-2,2,2-trifluoroethyl)-4-methylbenzamide]	–	–	0.005	–	–	70%	28000 nM	97%	550 nM
Cc1ccc(C(=O)NC(NC(=S)Nc2c(F)cccc2F)C(F)(F)F)cc1 (stereo not drawn) [Example 17, N-(1-{[(2,6-difluoroanilino)carbothioyl]amino}-2,2,2-trifluoroethyl)-4-methylbenzamide]	–	–	0.006	–	–	109%	12000 nM	100%	90 nM
Cc1ccc(C(=O)NC(NC(=S)Nc2cccc(F)c2F)C(F)(F)F)cc1 (stereo not drawn) [Example 18, N-(1-{[(2,3-difluoroanilino)carbothioyl]amino}-2,2,2-trifluoroethyl)-4-methylbenzamide]	–	–	0.020	–	–	123%	8000 nM	97%	90 nM
O=C(NC(NC(=S)Nc1ccccc1)C(F)(F)F)c1ccc(Cl)cc1 (stereo not drawn) [Example 20, N-{1-[(anilinocarbothioyl)amino]-2,2,2-trifluoroethyl}-4-chlorobenzamide]	–	–	0.011	–	–	85%	28000 nM	84%	90 nM
O=C(NC(NC(=S)Nc1ccccc1F)C(F)(F)F)c1ccc(Cl)cc1 (stereo not drawn) [Example 21, 4-chloro-N-(2,2,2-trifluoro-1-{[(2-fluoroanilino)carbothioyl]amino}ethyl)benzamide]	–	–	0.014	–	–	96%	21000 nM	86%	90 nM
Cc1ccc(C(=O)NC(NC(=S)Nc2cccnc2)C(C)(C)C)cc1 (stereo not drawn) [Example 22, N-(2,2-dimethyl-1-{[(3-pyridinylamino)carbothioyl]amino}propyl)-4-methylbenzamide]	–	–	0.017	–	–	100%	5000 nM	100%	220 nM
